ChEMBL document CHEMBL1201862, “PubChem BioAssay data set” (2004)
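Interpolation was linear, between the two tested concentrations surrounding the appropriate level; five concentrations were tested over 48 hours in 96-well plates. The concentration for 50% growth inhibition is given as GI50.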 Activity calls are given as the source filed them. Cut-off read from the data, not from the text of the source: active = GI50 up to about 1.1 µM and inactive = higher.

Experiments:
Assay in all cases: NCI-60 cell line screen, 48 h
SK-OV-3 = tested on: SK-OV-3
A498 = tested on: A498
SK-MEL-5 = tested on: SK-MEL-5
OVCAR-4 = tested on: OVCAR-4
HOP-92 = tested on: HOP-92
RXF 393 = tested on: RXF 393
SF-295 = tested on: SF-295
MDA-N = tested on: MDA-N
Malme-3M = tested on: Malme-3M
SF-539 = tested on: SF-539
OVCAR-3 = tested on: OVCAR-3
OVCAR-5 = tested on: OVCAR-5
NCI-H460 = tested on: NCI-H460
SW-620 = tested on: SW-620
SNB-19 = tested on: SNB-19
SF-268 = tested on: SF-268
SK-MEL-28 = tested on: SK-MEL-28
CAKI-1 = tested on: CAKI-1
DU-145 = tested on: DU-145
BT-549 = tested on: BT-549

SMILES	GI50 (SK-OV-3)	GI50 (A498)	GI50 (SK-MEL-5)	GI50 (OVCAR-4)	GI50 (HOP-92)	GI50 (RXF 393)	GI50 (SF-295)	GI50 (MDA-N)	GI50 (Malme-3M)	GI50 (SF-539)	GI50 (OVCAR-3)	GI50 (OVCAR-5)	GI50 (NCI-H460)	GI50 (SW-620)	GI50 (SNB-19)	GI50 (SF-268)	GI50 (SK-MEL-28)	GI50 (CAKI-1)	GI50 (DU-145)	GI50 (BT-549)
O=C1CCCc2ccc3c(c21)CC1(Cc2ccccc2C1)C3	53.5 µM (inactive)	25.6 µM (inactive)	18.5 µM (inactive)	17.2 µM (inactive)	17 µM (inactive)	33.3 µM (inactive)	24.2 µM (inactive)	19 µM (inactive)	33.2 µM (inactive)	31.6 µM (inactive)	33.5 µM (inactive)	31 µM (inactive)								
CCOCN1COCN/C1=N/C#N	> 100 µM (inactive)	> 100 µM (inactive)	> 100 µM (inactive)	> 100 µM (inactive)	> 100 µM (inactive)	0.094 µM (active)	> 100 µM (inactive)		> 100 µM (inactive)	> 100 µM (inactive)	> 100 µM (inactive)	> 100 µM (inactive)	> 100 µM (inactive)	17.9 µM (inactive)	> 100 µM (inactive)	> 100 µM (inactive)	> 100 µM (inactive)	> 100 µM (inactive)		
O=C1/C(=C/c2ccco2)NC(=S)N1CN1CCOCC1	> 100 µM (inactive)	> 100 µM (inactive)	> 100 µM (inactive)	> 100 µM (inactive)	> 100 µM (inactive)		> 100 µM (inactive)	> 100 µM (inactive)			> 100 µM (inactive)	> 100 µM (inactive)		> 100 µM (inactive)	> 100 µM (inactive)	> 100 µM (inactive)	> 100 µM (inactive)		> 100 µM (inactive)	
CNn1c(C)n[nH]c1=O	> 100 µM (inactive)	> 100 µM (inactive)	> 100 µM (inactive)	> 100 µM (inactive)	> 100 µM (inactive)		> 100 µM (inactive)		96.8 µM (inactive)	> 100 µM (inactive)	> 100 µM (inactive)	> 100 µM (inactive)	> 100 µM (inactive)	> 100 µM (inactive)	> 100 µM (inactive)	> 100 µM (inactive)	> 100 µM (inactive)	> 100 µM (inactive)	> 100 µM (inactive)	> 100 µM (inactive)
COc1ccc2c(c1)CC1Cc3cc(OC)c(OC)cc3CN1CC2 (stereo not given)	71.6 µM (inactive)	28.6 µM (inactive)	21.3 µM (inactive)	38.5 µM (inactive)	11.6 µM (inactive)	21 µM (inactive)	32.7 µM (inactive)		40.2 µM (inactive)		72.4 µM (inactive)	56 µM (inactive)	23 µM (inactive)	47.1 µM (inactive)	35.3 µM (inactive)	82.2 µM (inactive)	42.8 µM (inactive)	35.5 µM (inactive)	36.6 µM (inactive)	32.6 µM (inactive)
CCC(=O)OC1CCn2c1nc1c2C(=O)C(C)=C(NC(C)=O)C1=O (stereo not given)	3.87 µM (inactive)	18.4 µM (inactive)	1.83 µM (inactive)	0.198 µM (active)	1.69 µM (inactive)	1.73 µM (inactive)	2.23 µM (inactive)		1.61 µM (inactive)	1.75 µM (inactive)	0.236 µM (active)	1.92 µM (inactive)	3.22 µM (inactive)	1.49 µM (inactive)	2.9 µM (inactive)	1.74 µM (inactive)	2.22 µM (inactive)	1.92 µM (inactive)		
O=C1C=CC(=O)c2c(O)nc(CBr)nc21	> 100 µM (inactive)	82.6 µM (inactive)	44.9 µM (inactive)	> 100 µM (inactive)		> 100 µM (inactive)	68.9 µM (inactive)	36.1 µM (inactive)	> 100 µM (inactive)	> 100 µM (inactive)	> 100 µM (inactive)	> 100 µM (inactive)				> 100 µM (inactive)	> 100 µM (inactive)	> 100 µM (inactive)	> 100 µM (inactive)	
CNC(=S)N/N=C1\C(=O)N(CN2CCOCC2)c2ccc([N+](=O)[O-])cc21	16.8 µM (inactive)	24.5 µM (inactive)	32.5 µM (inactive)	14.8 µM (inactive)	21.3 µM (inactive)	16.4 µM (inactive)	18.2 µM (inactive)	67.9 µM (inactive)	16.1 µM (inactive)	17.7 µM (inactive)	17.5 µM (inactive)	22.8 µM (inactive)	23.4 µM (inactive)	28.2 µM (inactive)	21.9 µM (inactive)	20.2 µM (inactive)	20.7 µM (inactive)	17.7 µM (inactive)	13.7 µM (inactive)	
